# Results from US20220160712A1, “METHODS OF TREATING RHEUMATOID ARTHRITIS AND FOR PREDICTING THE RESPONSE TO METHOTREXATE” (CHAN ZUCKERBERG BIOHUB, INC., priority 2020, published 2022).
# Tests used:
# Clostridium sporogenes = assay: RNA-seq after MTX treatment; type: cell-based; conditions: MTX 100 μg/ml, 30 minutes; padj<0.2, DESeq
# Procedure: (§1) Genomes were obtained from NCBI's GenBank Assembly database. Culture media was composed of BHI+and allowed to equilibrate in an anaerobic environment prior to use. Briefly, bacteria were cultured in BHI+at 37° C. in an anaerobic chamber. Cultures for each isolate were grown to mid-exponential (achieving an OD600˜0.5), aliquoted into triplicates, treated for 30 minutes with either DMSO or MTX 100 μg/ml, and then removed from the anaerobic chamber. […]
# (§2) Total RNA was subjected to rRNA depletion using Ribo-Zero Bacterial rRNA Depletion (Illumina, catalog #: MRZB12424), following the manufacturer's protocol. […] For each sample, fastq files are available in NCBI's Sequence Read Archive (SRA), accession number PRJNA656577.
# (§3) Reads were trimmed using Trimmomatic (v0.32) (Bolger, A. M., et al., (2014), Bioinformatics 30, 2114-2120), and ribosomal reads were removed using SortMeRNA (v2.1) (Kopylova, E., et al., (2012), Bioinformatics 28, 3211-3217). Reads were mapped to reference genomes using Bowtie2 (Langmead, B., and Salzberg, S. L. (2012), Nat Methods 9, 357-359) using the following options: -q, —met file, —end-to-end, —sensitive. […]
# C. symbiosum = assay: RNA-seq after MTX treatment; type: cell-based, Clostridium symbiosum; conditions: MTX 100 μg/ml, 30 minutes; padj<0.2, DESeq
# Procedure: as §1, §2, §3
# [1] = newly diagnosed RA patients; cited from earlier work
compound,measurement,setting,value
"CN(Cc1cnc2nc(N)nc(N)c2n1)c1ccc(C(=O)N[C@@H](CCC(=O)O)C(=O)O)cc1 [MTX, methotrexate]",number of differentially expressed genes,Clostridium sporogenes,21 genes
same,number of differentially expressed genes,C. symbiosum,55 genes
same,patients with a robust response without escalation of therapy,[1],~33%
